Test results: US4413005A, “Carbamate derivatives and insecticidal, miticidal or nematocidal compositions containing the same” (priority 1981, dated 1983)
Where two headings read alike, the source gives them in different places.

Experiments:
[1] = tested on: tobacco cutworm (Spodoptera litura); assay: Mortality of third-instar larvae of tobacco cutworm on cabbage (Test Example 1); assay type: in vivo; settings: 72 h
Description: Ten third-instar larvae of tobacco cutworm (Spodoptera litura) were placed on a cabbage (one-month-old seedling) planted in a pot, and a 50% emulsion of the compound to be tested was diluted to a specified concentration and applied to the leaves of the plant to fully wet them. The test compound of each specified concentration was tested on two pots.

[2] = tested on: green rice leafhopper (Nephotettix cincticeps); assay: Mortality of female adults of green rice leafhopper on paddy rice (Test Example 2); assay type: in vivo; settings: 72 h
Description: An emulsion of specified concentration was prepared from a 50% wettable powder of the compound to be tested and applied to the leaves of paddy rice (one-month-old seedlings) planted in a pot to fully wet the leaves. After the emulsion had been dried, the pot was covered with a net cage, into which 10 female adults of green rice leafhopper (Nephotettix cincticeps) were released. The compound of each specified concentration was tested on two pots.

[3] = tested on: house fly (Musca domestica); assay: Local application to house fly, LD50 by Probit method (Test Example 4); assay type: in vivo; settings: topical
Description: The compound to be tested was dissolved in a predetermined amount of acetone. The solution was diluted to various concentrations and locally applied to house fly (Musca domestica).

[4] = Acute oral toxicity in male mice, LD50 by Litchfield-Wilcoxon method (Test Example 5); settings: mouse, in vivo, mortality on the seventh day
Description: Compounds of this invention were tested on male mice for acute toxicity by oral administration.

SMILES: CNC(=O)Oc1cccc2ccccc12 [1-Naphthyl-N--methyl-carbamate, reference compound]
- mortality at 500 ppm [1]: 60%
- mortality at 1000 ppm [1]: 80%
- mortality at 2000 ppm [1]: 100%

SMILES: CNC(=O)Oc1ccccc1OC(C)C [2-Isopropoxyphenyl-N--methyl-carbamate, reference compound]
- mortality at 200 ppm ([2]; 200 ppm active ingredient, from 50% wettable powder, three days later, read-out: Mortality): 0%
- mortality at 400 ppm ([2]; 400 ppm active ingredient, from 50% wettable powder, three days later, read-out: Mortality): 0%
- mortality at 800 ppm ([2]; 800 ppm active ingredient, from 50% wettable powder, three days later, read-out: Mortality): 0%
- LD50 ([3]; house fly, locally applied in acetone, mortality 24 hours later, Probit method, read-out: LD50): 22.5 mg/kg

SMILES: CN(SN(CC#N)CC#N)C(=O)Oc1cccc2c1OC(C)(C)C2 [Example 1, 2,3-dihydro-2,2-dimethylbenzofuran-7-yl N-[N,N-bis(cyanomethyl)aminosulfenyl]-N-methyl-carbamate]
- mortality at 500 ppm [1]: 65%
- mortality at 1000 ppm [1]: 80%
- mortality at 2000 ppm [1]: 100%
- LD50 at 168 h [4]: 58 mg/kg
- mortality at 200 ppm [2]: 50%
- mortality at 400 ppm [2]: 85%
- mortality at 800 ppm [2]: 100%
- LD50 ([3]; 24 h): 21.3 mg/kg

SMILES: CCOC(=O)CN(CC(=O)OCC)SN(C)C(=O)Oc1cccc2c1OC(C)(C)C2 [Example 2, 2,3-dihydro-2,2-dimethylbenzofuran-7-yl N-[N,N-bis(ethoxycarbonylmethyl)aminosulfenyl]-N-methylcarbamate]
- mortality at 500 ppm [1]: 60%
- mortality at 1000 ppm [1]: 70%
- mortality at 2000 ppm [1]: 100%
- LD50 at 168 h [4]: 140 mg/kg
- mortality at 200 ppm [2]: 45%
- mortality at 400 ppm [2]: 85%
- mortality at 800 ppm [2]: 100%
- LD50 ([3]; 24 h): 58.8 mg/kg

SMILES: COC(=O)CN(CC(=O)OC)SN(C)C(=O)Oc1cccc2c1OC(C)(C)C2 [Example 3]
- mortality at 500 ppm [1]: 65%
- mortality at 1000 ppm [1]: 80%
- mortality at 2000 ppm [1]: 100%
- LD50 at 168 h [4]: 145 mg/kg
- mortality at 200 ppm [2]: 45%
- mortality at 400 ppm [2]: 85%
- mortality at 800 ppm [2]: 100%
- LD50 ([3]; 24 h): 40 mg/kg

SMILES: CC(C)OC(=O)CN(CC(=O)OC(C)C)SN(C)C(=O)Oc1cccc2c1OC(C)(C)C2 [Example 4]
- mortality at 500 ppm [1]: 60%
- mortality at 1000 ppm [1]: 70%
- mortality at 2000 ppm [1]: 100%
- LD50 at 168 h [4]: 122 mg/kg
- mortality at 200 ppm [2]: 40%
- mortality at 400 ppm [2]: 70%
- mortality at 800 ppm [2]: 100%
- LD50 ([3]; 24 h): 28.9 mg/kg

SMILES: CN(SN(CC(=O)OC1CCCCC1)CC(=O)OC1CCCCC1)C(=O)Oc1cccc2c1OC(C)(C)C2 [Example 5]
- mortality at 500 ppm [1]: 65%
- mortality at 1000 ppm [1]: 80%
- mortality at 2000 ppm [1]: 100%
- LD50 at 168 h [4]: 90 mg/kg
- mortality at 200 ppm [2]: 45%
- mortality at 400 ppm [2]: 80%
- mortality at 800 ppm [2]: 100%
- LD50 ([3]; 24 h): 75.6 mg/kg

SMILES: CCOC(=O)CCN(CCC(=O)OCC)SN(C)C(=O)Oc1cccc2c1OC(C)(C)C2 [Example 6, 2,3-dihydro-2,2-dimethylbenzofuran-7-yl N-[N,N-bis(ethoxycarbonylethyl)aminosulfenyl]-N-methylcarbamate]
- mortality at 500 ppm [1]: 60%
- mortality at 1000 ppm [1]: 75%
- mortality at 2000 ppm [1]: 100%
- LD50 at 168 h [4]: 135 mg/kg
- mortality at 200 ppm [2]: 55%
- mortality at 400 ppm [2]: 75%
- mortality at 800 ppm [2]: 95%
- LD50 ([3]; 24 h): 38.3 mg/kg

SMILES: CN(SN(CCC#N)CCC#N)C(=O)Oc1cccc2c1OC(C)(C)C2 [Example 7, 2,3-dihydro-2,2-dimethylbenzofuran-7-yl N-[N,N-bis(cyanoethyl)aminosulfenyl]-N-methyl-carbamate]
- mortality at 500 ppm [1]: 60%
- mortality at 1000 ppm [1]: 75%
- mortality at 2000 ppm [1]: 100%
- LD50 at 168 h [4]: 75 mg/kg
- mortality at 200 ppm [2]: 50%
- mortality at 400 ppm [2]: 70%
- mortality at 800 ppm [2]: 90%
- LD50 ([3]; 24 h): 54 mg/kg

SMILES: CCOC(=O)CN(CCC#N)SN(C)C(=O)Oc1cccc2c1OC(C)(C)C2 [Example 8]
- mortality at 500 ppm [1]: 75%
- mortality at 1000 ppm [1]: 85%
- mortality at 2000 ppm [1]: 100%
- LD50 at 168 h [4]: 105 mg/kg
- mortality at 200 ppm [2]: 60%
- mortality at 400 ppm [2]: 85%
- mortality at 800 ppm [2]: 95%
- LD50 ([3]; 24 h): 24.6 mg/kg

SMILES: CCOC(=O)CCN(CC(=O)OCC)SN(C)C(=O)Oc1cccc2c1OC(C)(C)C2 [Example 9]
- mortality at 500 ppm [1]: 80%
- mortality at 1000 ppm [1]: 90%
- mortality at 2000 ppm [1]: 100%
- LD50 at 168 h [4]: 158 mg/kg
- mortality at 200 ppm [2]: 60%
- mortality at 400 ppm [2]: 90%
- mortality at 800 ppm [2]: 100%
- LD50 ([3]; 24 h): 31.7 mg/kg

SMILES: CCOC(=O)CCCN(CC(=O)OCC)SN(C)C(=O)Oc1cccc2c1OC(C)(C)C2 [Example 10]
- mortality at 500 ppm [1]: 75%
- mortality at 1000 ppm [1]: 85%
- mortality at 2000 ppm [1]: 100%
- LD50 at 168 h [4]: 115 mg/kg
- mortality at 200 ppm [2]: 60%
- mortality at 400 ppm [2]: 90%
- mortality at 800 ppm [2]: 100%
- LD50 ([3]; 24 h): 46 mg/kg

SMILES: CCOC(=O)CN(SN(C)C(=O)Oc1cccc2c1OC(C)(C)C2)C(CC)C(=O)OCC (stereo not drawn) [Example 11]
- mortality at 500 ppm [1]: 70%
- mortality at 1000 ppm [1]: 80%
- mortality at 2000 ppm [1]: 100%
- LD50 at 168 h [4]: 93 mg/kg
- mortality at 200 ppm [2]: 55%
- mortality at 400 ppm [2]: 80%
- mortality at 800 ppm [2]: 95%
- LD50 ([3]; 24 h): 93.9 mg/kg

SMILES: CCCCN(CC(=O)OCC)SN(C)C(=O)Oc1cccc2c1OC(C)(C)C2 [Example 12, 2,3-dihydro-2,2-dimethylbenzofuran-7-yl N-(N-butyl-N-ethoxycarbonylmethylaminosulfenyl)-N-methyl-carbamate]
- mortality at 500 ppm [1]: 75%
- mortality at 1000 ppm [1]: 90%
- mortality at 2000 ppm [1]: 100%
- LD50 at 168 h [4]: 125 mg/kg
- mortality at 200 ppm [2]: 65%
- mortality at 400 ppm [2]: 90%
- mortality at 800 ppm [2]: 100%
- LD50 ([3]; 24 h): 16.7 mg/kg

SMILES: CCOC(=O)CN(SN(C)C(=O)Oc1cccc2c1OC(C)(C)C2)c1ccccc1 [Example 13, 2,3-dihydro-2,2-dimethylbenzofuran-7-yl N-(N-phenyl-N-ethoxycarbonylmethylaminosulfenyl)-N-methylcarbamate]
- mortality at 500 ppm [1]: 75%
- mortality at 1000 ppm [1]: 90%
- mortality at 2000 ppm [1]: 100%
- LD50 at 168 h [4]: 115 mg/kg
- mortality at 200 ppm [2]: 65%
- mortality at 400 ppm [2]: 90%
- mortality at 800 ppm [2]: 100%
- LD50 ([3]; 24 h): 12.5 mg/kg

SMILES: CCOC(=O)CN(C)SN(C)C(=O)Oc1cccc2c1OC(C)(C)C2 [Example 14, 2,3-Dihydro-2,2-dimethylbenzofuran-7-yl N-(N-methyl-N-ethoxycarbonylmethylaminosulfenyl)-N-methylcarbamate]
- mortality at 500 ppm [1]: 75%
- mortality at 1000 ppm [1]: 90%
- mortality at 2000 ppm [1]: 100%
- LD50 at 168 h [4]: 120 mg/kg
- mortality at 200 ppm [2]: 65%
- mortality at 400 ppm [2]: 90%
- mortality at 800 ppm [2]: 100%
- LD50 ([3]; 24 h): 9.9 mg/kg

SMILES: CCOC(=O)CN(SN(C)C(=O)Oc1cccc2c1OC(C)(C)C2)C(C)C [Example 15]
- mortality at 500 ppm [1]: 75%
- mortality at 1000 ppm [1]: 90%
- mortality at 2000 ppm [1]: 100%
- LD50 at 168 h [4]: 110 mg/kg
- mortality at 200 ppm [2]: 65%
- mortality at 400 ppm [2]: 90%
- mortality at 800 ppm [2]: 100%
- LD50 ([3]; 24 h): 33 mg/kg

SMILES: CCOC(=O)CN(SN(C)C(=O)Oc1cccc2c1OC(C)(C)C2)C(C)CC (stereo not drawn) [Example 16]
- mortality at 500 ppm [1]: 65%
- mortality at 1000 ppm [1]: 85%
- mortality at 2000 ppm [1]: 100%
- LD50 at 168 h [4]: 110 mg/kg
- mortality at 200 ppm [2]: 60%
- mortality at 400 ppm [2]: 80%
- mortality at 800 ppm [2]: 100%
- LD50 ([3]; 24 h): 44.4 mg/kg

SMILES: CCCCCCCCN(CC(=O)OCC)SN(C)C(=O)Oc1cccc2c1OC(C)(C)C2 [Example 17]
- mortality at 500 ppm [1]: 60%
- mortality at 1000 ppm [1]: 80%
- mortality at 2000 ppm [1]: 100%
- LD50 at 168 h [4]: 69 mg/kg
- mortality at 200 ppm [2]: 55%
- mortality at 400 ppm [2]: 75%
- mortality at 800 ppm [2]: 95%
- LD50 ([3]; 24 h): 42.3 mg/kg

SMILES: CCOC(=O)CN(SN(C)C(=O)Oc1cccc2c1OC(C)(C)C2)C1CCCCC1 [Example 18]
- mortality at 500 ppm [1]: 75%
- mortality at 1000 ppm [1]: 90%
- mortality at 2000 ppm [1]: 100%
- LD50 at 168 h [4]: 135 mg/kg
- mortality at 200 ppm [2]: 65%
- mortality at 400 ppm [2]: 90%
- mortality at 800 ppm [2]: 100%
- LD50 ([3]; 24 h): 32.5 mg/kg

SMILES: CCOC(=O)CN(Cc1ccccc1)SN(C)C(=O)Oc1cccc2c1OC(C)(C)C2 [Example 19]
- mortality at 500 ppm [1]: 65%
- mortality at 1000 ppm [1]: 85%
- mortality at 2000 ppm [1]: 100%
- LD50 at 168 h [4]: 108 mg/kg
- mortality at 200 ppm [2]: 60%
- mortality at 400 ppm [2]: 80%
- mortality at 800 ppm [2]: 100%
- LD50 ([3]; 24 h): 22.2 mg/kg

SMILES: CCOC(=O)CN(Cc1ccc(Cl)cc1)SN(C)C(=O)Oc1cccc2c1OC(C)(C)C2 [Example 20]
- mortality at 500 ppm [1]: 65%
- mortality at 1000 ppm [1]: 85%
- mortality at 2000 ppm [1]: 100%
- LD50 at 168 h [4]: 75 mg/kg
- mortality at 200 ppm [2]: 60%
- mortality at 400 ppm [2]: 80%
- mortality at 800 ppm [2]: 100%
- LD50 ([3]; 24 h): 61.9 mg/kg

SMILES: CCOC(=O)CN(SN(C)C(=O)Oc1cccc2c1OC(C)(C)C2)c1cccc(C)c1 [Example 21]
- mortality at 500 ppm [1]: 75%
- mortality at 1000 ppm [1]: 90%
- mortality at 2000 ppm [1]: 100%
- LD50 at 168 h [4]: 105 mg/kg
- mortality at 200 ppm [2]: 65%
- mortality at 400 ppm [2]: 90%
- mortality at 800 ppm [2]: 100%
- LD50 ([3]; 24 h): 10.4 mg/kg

SMILES: CCOC(=O)CN(SN(C)C(=O)Oc1cccc2c1OC(C)(C)C2)c1ccc(OC)cc1 [Example 22]
- mortality at 500 ppm [1]: 65%
- mortality at 1000 ppm [1]: 85%
- mortality at 2000 ppm [1]: 100%
- LD50 at 168 h [4]: 88 mg/kg
- mortality at 200 ppm [2]: 60%
- mortality at 400 ppm [2]: 80%
- mortality at 800 ppm [2]: 100%
- LD50 ([3]; 24 h): 45.2 mg/kg
